Reference: ChEMBL document CHEMBL1158926, “Norsesterterpenes from the North Adriatic Sponge Ircinia oros” (J Nat Prod, 1990)
≈ marks a conversion by molar mass, not a printed value.

Assay: Toxicity against Artemia salina
Type: organism-based
Settings: in vivo, read-out: LD50 (the source's name)

Compound	LC50 [µg/mL]
CC1=C(O)/C(=C/[C@H](C)CCC/C(C)=C/CCc2coc(Cc3ccoc3)c2)OC1=O [IRCININ 1]	2.4 (≈ 5.85 µM)
C/C(=C\CCc1coc(Cc2ccoc2)c1)CCCC(C)CC(=O)C(O)C(C)Cl (centres undefined)	8.2 (≈ 19.5 µM)
C/C(=C/CCC(C)CC(=O)C(O)C(C)Cl)CCCc1coc(Cc2ccoc2)c1 (centres undefined)	8.6 (≈ 20.4 µM)
CC1=C(O)/C(=C/[C@H](C)CC/C=C(/C)CCCc2coc(Cc3ccoc3)c2)OC1=O [IRCININ 2]	2.7 (≈ 6.58 µM)
